Here are results for 4 substances from US20140001056A1 (priority 2011, published 2014).

Several values for one entry are separate records, joined by “and”; a condition that tells them apart may be missing. Equal values may be shown once. Read-outs that look alike come from different tables or passages of the source.

Some targets named below: α-HL monomer (Staphylococcus aureus, UniProt P09616); α-HL heptamer (Staphylococcus aureus, UniProt P09616); MspA (NNNRRK mutant) (Mycolicibacterium smegmatis, UniProt A0QR29, D117N/D118N/D120N/D145R/D161R/E166K); WT-Kcv (Paramecium bursaria Chlorella virus 1, UniProt Q84568).
Assay [1] has as its target T1, WT-α-HL pore (Staphylococcus aureus, UniProt P09616). It is filed as binding.
Assay [2] addresses T1, WT-α-HL pore. The note with it: cited from earlier work.

Sequence of WT-Kcv (Q84568 whole entry, looked up): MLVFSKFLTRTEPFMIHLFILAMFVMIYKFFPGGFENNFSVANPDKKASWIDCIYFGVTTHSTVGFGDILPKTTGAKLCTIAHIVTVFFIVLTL
T1 sequence (P09616 27-319 limits assumed): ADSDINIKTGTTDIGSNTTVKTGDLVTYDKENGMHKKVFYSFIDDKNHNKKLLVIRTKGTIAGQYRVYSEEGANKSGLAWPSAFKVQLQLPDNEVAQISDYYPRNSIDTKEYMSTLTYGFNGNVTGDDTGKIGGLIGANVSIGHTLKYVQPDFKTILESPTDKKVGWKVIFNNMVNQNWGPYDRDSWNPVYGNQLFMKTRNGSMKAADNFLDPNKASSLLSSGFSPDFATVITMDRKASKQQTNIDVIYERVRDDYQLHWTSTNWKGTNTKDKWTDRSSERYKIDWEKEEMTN
Sequence of α-HL heptamer (P09616 27-319 limits assumed): as above
Sequence of α-HL monomer (P09616 27-319 limits assumed): as above
Sequence of MspA (NNNRRK mutant) (A0QR29 28-211 D117N/D118N/D120N/D145R/D161R/E166K limits assumed): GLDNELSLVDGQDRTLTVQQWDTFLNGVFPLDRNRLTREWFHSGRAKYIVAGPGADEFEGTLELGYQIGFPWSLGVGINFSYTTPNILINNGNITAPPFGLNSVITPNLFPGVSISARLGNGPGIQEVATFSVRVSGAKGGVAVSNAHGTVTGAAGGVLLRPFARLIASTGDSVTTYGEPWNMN

As to “C6F13C2H4—S-poly[tris(hydroxymethyl)aminomethane] [F6TAC]”, the “Initial rate of release of dye” value at α-HL monomer came out at 6.5 % min^−1; at α-HL heptamer, 16 % min^−1. Besides, the “Lag time before initiation of release” value is 7.5 min at α-HL monomer and 4.8 min at α-HL heptamer.

For Fluorinated fos-choline [F6FC], the “gα-HL, unitary conductance in the absence of βCD” value on WT-α-HL pore [1] (pH 7.5) is 650 ± 3 pS and 721 ± 4 pS. The “Percent release of dye at end point” value on α-HL monomer was 0.2% and 0.3%. Further, the “Lag time before initiation of release” value on α-HL heptamer is 2.8 min and 4.3 min. For the same substance, at MspA (NNNRRK mutant), the “blockades or gating changes of MspA pores already inserted” value is “did not cause blockades or changes in the gating” and the “insertion of MspA pores into planar lipid bilayer” value was “No further insertion events occur”. Besides, at WT-Kcv, the “blockades or gating changes of Kcv channels already inserted” value is “did not cause blockades or changes in the gating”, the “insertion of Kcv channels into planar lipid bilayer” value was “No openings are seen” and the “single-channel IV curve of Kcv” value is “unchanged”.

With Fluorinated octyl maltoside [F6OM], the “Initial rate of release of dye” value at α-HL monomer came to 4 % min^−1; on α-HL heptamer, 16 % min^−1. Moreover, the “Lag time before initiation of release” value at α-HL monomer is 4.4 min; on α-HL heptamer, 1.8 min.

As for β-cyclodextrin [βCD], on WT-α-HL pore [1], the Kd was 5.4 mM and 9.6 mM; the “gα-HL·βCD, unitary conductance with βCD bound” value was 257 ± 3 pS and 232 ± 4 pS; the koff is 1.7 ± 0.1 × 10^3 s^−1 and 2.4 ± 0.3 × 10^3 s^−1; the kon is 3.1 ± 0.1 × 10^5 M^−1s^−1 and 2.5 ± 0.4 × 10^5 M^−1s^−1. Besides, on WT-α-HL pore [2], the “gα-HL·βCD, unitary conductance with βCD bound” value is 253 ± 4 pS and 240 ± 3 pS; the koff was 2.1 ± 0.2 × 10^3 s^−1 and 1.3 ± 0.1 × 10^3 s^−1; the kon is 2.8 ± 0.2 × 10^5 M^−1s^−1 and 4.0 ± 0.3 × 10^5 M^−1s^−1.
